Experimental data: publication PMC6520443, “Molecular Fingerprints for a Novel Enzyme Family in Actinobacteria with Glucosamine Kinase Activity” (mBio, 2019)

Key:
SjGlcNK = molecular target: T1, SjGlcNK (Streptacidiphilus jiangxiensis, UniProt A0A1H7TQR5); test: kinase kinetics, Michaelis-Menten fit; format: biochemical; conditions: co-substrate ATP
T1 construct: gene SAMN05414137_114149; recombinant, E. coli BL21(DE3), nickel NTA and size exclusion; monomer in solution; C-lobe residues 194-438
T1 sequence (A0A1H7TQR5 1-438): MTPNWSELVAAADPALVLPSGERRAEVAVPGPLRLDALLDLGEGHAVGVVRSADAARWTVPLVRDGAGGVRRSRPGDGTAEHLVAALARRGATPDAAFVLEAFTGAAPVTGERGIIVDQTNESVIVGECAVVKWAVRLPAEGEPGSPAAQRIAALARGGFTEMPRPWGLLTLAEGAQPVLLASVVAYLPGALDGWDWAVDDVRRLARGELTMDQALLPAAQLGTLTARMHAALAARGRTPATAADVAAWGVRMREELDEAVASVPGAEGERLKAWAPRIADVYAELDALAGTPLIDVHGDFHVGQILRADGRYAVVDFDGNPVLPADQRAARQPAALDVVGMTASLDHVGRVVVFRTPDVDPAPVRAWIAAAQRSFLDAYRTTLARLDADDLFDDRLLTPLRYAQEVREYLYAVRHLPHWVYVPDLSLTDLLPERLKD

MvMak = molecular target: T2, MvMak (Mycolicibacterium austroafricanum, UniProt A1TH50); test: ADP-Glo kinase assay, relative activity; format: biochemical; conditions: 5 mM sugar, 1 mM ATP, 2 μM enzyme, room temperature, 5 min
T2 construct: gene mak; recombinant, produced as previously described
T2 sequence (A1TH50 whole entry): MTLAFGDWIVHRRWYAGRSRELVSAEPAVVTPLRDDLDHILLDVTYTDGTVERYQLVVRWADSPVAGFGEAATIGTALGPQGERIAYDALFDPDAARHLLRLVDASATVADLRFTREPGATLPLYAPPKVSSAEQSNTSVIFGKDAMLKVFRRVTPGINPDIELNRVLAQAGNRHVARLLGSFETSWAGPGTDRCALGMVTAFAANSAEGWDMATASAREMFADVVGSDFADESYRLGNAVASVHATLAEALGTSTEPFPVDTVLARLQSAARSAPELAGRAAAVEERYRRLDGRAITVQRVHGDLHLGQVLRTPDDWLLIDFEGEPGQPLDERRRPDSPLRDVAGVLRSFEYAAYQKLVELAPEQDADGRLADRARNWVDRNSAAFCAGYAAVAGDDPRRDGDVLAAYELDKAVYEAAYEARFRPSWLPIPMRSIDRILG

Row | Compound | Km (SjGlcNK) | ADP-Glo kinase assay, relative activity (MvMak)
1 | OC[C@H]1OC(O)[C@H](O)[C@@H](O)[C@@H]1O (some centres unmarked) [glucose] | > 100 mM | 
2 | OC[C@H]1O[C@H](O[C@H]2[C@H](O)[C@@H](O)C(O)O[C@@H]2CO)[C@H](O)[C@@H](O)[C@@H]1O (some centres unmarked) [maltose] |  | MvMak uses exclusively maltose as the substrate acceptor
